Assay [1] concerns RPTPσ. Put plainly: Activation / phosphorylation of RPTPσ by sulfated octasaccharides (Western blot, densitometric analysis, FIG. 1a). Type of assay: cell-based. As to conditions: 10 μg/mL, 15 min; FIG. 1 panel a. The procedure: SDS-PAGE and Western blotting. Cells were lysed with Tris-buffered saline (TBS), 1% Triton-X, Complete Mini Protease Inhibitor Cocktail (Roche) and Phostop Phosphatase Inhibitor Cocktail (Roche). Lysates were incubated on ice for 10 min and centrifuged at 20000 g for 10 min at 4° C. Supernatants were mixed with 4×SDS sample buffer and boiled for 5 min.
All samples were run on 5-20% gradient gel (Wako) and transferred to nitrocellulose membranes (GE Healthcare). After blocking with 5% non-fat dry milk or BSA, the membranes were blotted with primary antibodies. Primary antibodies used in this work included anti-EGFR pY1174 (Invitrogen, 44794G), anti-HA (Roche, clone 3F10), 4G10 Platinum (Millipore, 05-1050) and anti-β-actin (Sigma Aldrich, clone AC-15). All primary antibodies were used at 1:1000 dilution. All secondary antibodies conjugated with horseradish peroxidase were from Jackson ImmunoResearch and used at 1:3000 dilution. Membranes were developed with Novex ECL (Invitrogen) or ECL Plus Substrate (Pierce).

The test system of assay [2] is adult DRG neurons. Put plainly: Rescue of dystrophic endballs and axonal growth of adult DRG neurons across an aggrecan gradient (FIG. 1b, c). It counts as cell-based, mice. As to conditions: for promotion of axonal growth / penetration across an aggrecan gradient / rescue / prevention of dystrophic endball formation: 20 μg/mL, adult DRG neurons on aggrecan gradient, FIG. 1 panel b; for axons invading the aggrecan rim that could pass the rim of aggrecan gradient: FIG. 1 panel c, left, comparable to chondroitinase ABC (C-ABC) digestion of chondroitin sulfate. How it is done: Preparation of an aggrecan gradient spot on coverslip. Glass coverslips were coated with 100 μg/mL PLL overnight at room temperature, rinsed with sterile water and dried completely. Onto the coverslip, 2 μL of an aggrecan (0.4 mg/mL) and laminin (10 μg/mL) mixture in Ca^2+- and Mg^2+-free Hank's balanced salt solution (HBSS) (Invitrogen) was spotted and dried. Then, the coverslip was bathed in laminin ([…]) solution in HBSS until just before (i.e., at least 3 h before) cell plating at 37° C. The laminin solution was subsequently removed, and the cells were plated without allowing the surface of the coverslip to dry.
DRG neuron primary culture. DRGs were dissected out of C57BL/6J (SLC) adult (12-16 weeks) female mice. The roots of isolated DRGs were trimmed in cold HBSS, collected in a centrifuge tube and spun down for 1 min at low speed (500 rpm). Then, the HBSS was removed. The tissues were incubated in collagenase-II (4 mg/mL)/dispase-II (4.67 mg/mL) in HBSS for 15 min at 37° C. After spinning down at low speed, the tissues were rinsed once with pre-warmed culture media consisting of Neurobasal-A (Gibco) with Gluta-MAX (Gibco), Anti-Anti (Gibco) and B-27 (Invitrogen), then spun down and triturated in fresh media. To refine neurons, the cell suspension was carefully overlaid onto 15% bovine serum albumin (BSA) in HBSS and spun down for 5 min at high speed (1000 rpm), and the supernatant was gently removed. The DRG cells were rinsed once and suspended in the media. The DRG cells were plated onto coverslips in the media.
Immunostaining. DRG neurons were fixed in ice-cold methanol for 15 min at −30° C. The fixed samples were then rinsed three times with phosphate buffered saline (PBS) and incubated in a blocking solution containing 5% (v/v) goat serum (Vector) and 0.2% (v/v) Triton-X 100 (Sigma) for 90 min at room temperature. For neuron-specific class III β-tubulin (Tuj1) staining, samples were bathed in 1:1000 mouse monoclonal Tuj1 (Covance, 801201) diluted in PBS containing 2.5% (v/v) normal goat serum overnight at 4° C. After three washes with PBS, neurons were incubated with 1:250 Alexa488-conjugated goat anti-mouse IgG (Molecular Probes, A11001) dissolved in PBS containing 2.5% (v/v) goat serum for 2 h at room temperature.

Entries after “also recorded” stand apart in the source; their conditions may differ.

3 molecules from patent US11141428B2, “Octasaccharides and uses thereof” (Academia Sinica, priority 2017, dated 2021) can be followed below.

Consider `NCCCCCO[C@@H]1O[C@H](C(=O)O)[C@@H](O[C@H]2O[C@H](CO)[C@@H](O[C@@H]3O[C@@H](C(=O)O)[C@@H](O[C@H]4O[C@H](CO)[C@@H](O[C@@H]5O[C@H](C(=O)O)[C@@H](O[C@H]6O[C@H](CO)[C@@H](O[C@@H]7O[C@@H](C(=O)O)[C@@H](O[C@H]8O[C@H](CO)[C@@H](O)[C@H](O)[C@H]8NS(=O)(=O)O)[C@H](O)[C@H]7OS(=O)(=O)O)[C@H](O)[C@H]6NS(=O)(=O)O)[C@H](O)[C@H]5OS(=O)(=O)O)[C@H](O)[C@H]4NS(=O)(=O)O)[C@H](O)[C@H]3OS(=O)(=O)O)[C@H](O)[C@H]2NS(=O)(=O)O)[C@H](O)[C@H]1OS(=O)(=O)O` [HS14], for which the “activation of RPTPσ (inducing phosphorylation of RPTPσ)” value in assay [1] is “capable of inducing phosphorylation of RPTPσ; also recorded: activated RPTPσ”. In assay [2], the “promotion of axonal growth / penetration across an aggrecan gradient” value is listed as “promoted axonal growth”, the “rescue / prevention of dystrophic endball formation” value (from here on “rescue / prevention”) was “rescued dystrophic endball formation” and the “axons invading the aggrecan rim that could pass the rim of aggrecan gradient” value is “Nearly half”. Further, in assay [2] (listed as HS 14), the “promotion of axonal growth / penetration across an aggrecan gradient” value was “facilitated their penetration across the gradient” and the “rescue / prevention” value is “prevent formation of dystrophic endballs”.
On to “5-Aminopentyl (2-deoxy-2-sulfamido-6-O-sulfonato-α-D-glucopyranosyl)-(1→4)-α-L-idopyranosiduronyl-(1→4)-(2-deoxy-2-sulfamido-6-O-sulfonato-α-D-glucopyranosyl)-(1→4)-β-D-glucopyranosiduronyl-(1→4)-(2-deoxy-2-sulfamido-6-O-sulfonato-α-D-glucopyranosyl)-(1→4)-α-L-idopyranosiduronyl-(1→4)-(2-deoxy-2-sulfamido-6-O-sulfonato-α-D-glucopyranosyl)-(1→4)-β-D-glucopyranosiduronate [HS16]”, for which, in assay [2], the “promotion of axonal growth / penetration across an aggrecan gradient” value is “facilitated their penetration across the gradient”, the “rescue / prevention” value was “prevent formation of dystrophic endballs” and the “axons invading the aggrecan rim that could pass the rim of aggrecan gradient” value is “Nearly half”.
“5-Aminopentyl (2-deoxy-2-sulfamido-α-D-glucopyranosyl)-(1→4)-α-L-idopyranosiduronyl-(1→4)-(2-deoxy-2-sulfamido-α-D-glucopyranosyl)-(1→4)-β-D-glucopyranosiduronyl-(1→4)-(2-deoxy-2-sulfamido-α-D-glucopyranosyl)-(1→4)-α-L-idopyranosiduronyl-(1→4)-(2-de oxy-2-sulfamido-α-D-glucopyranosyl)-(1→4)-β-D-glucopyranosiduronate [HS10]”: in assay [1], the “activation of RPTPσ (inducing phosphorylation of RPTPσ)” value is “capable of inducing phosphorylation of RPTPσ”.
